# According to ChEMBL document CHEMBL1201862, “PubChem BioAssay data set” (2004):
# Calls of active or inactive are those of the source.
# Columns and labels:
# [1] = growth suppression of PTEN-null colon cells, dose response, cell-based, HCT116 PTEN knockout (AID 1047); format: functional;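 note: HCT116 colon tumor cells with PTEN knocked out; cells exposed to compound for 60 hours before readout; potency for loss of cell viability measured by luminescence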
# Vero = assay: host cell cytotoxicity of antiviral hits, dose response, cytotoxicity control for West Nile virus antiviral project, secondary assay (AID 1650); format: functional; details: Chlorocebus sabaeus
# [2] = growth suppression of beta-catenin-knockout colon cells, dose response, cell-based, HCT116, human colon tumor (AID 1045); format: functional;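 note: HCT116 colon tumor cells with beta catenin knocked out; cells exposed to compound for 60 hours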
# [3] = biological target: T1, Epstein-Barr nuclear antigen 1 (Epstein-Barr virus (strain B95-8) (HHV-4) (Human herpesvirus 4), UniProt P03211); assay: EBNA-1 inhibitors, dose response, biochemical, fluorescence polarization, 1536-well (AID 2381); design: species or system human gammaherpesvirus 4;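 note: fluorescence polarization of a Cy5 DNA probe bound by EBNA-1 protein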
# T1 sequence (P03211 whole entry): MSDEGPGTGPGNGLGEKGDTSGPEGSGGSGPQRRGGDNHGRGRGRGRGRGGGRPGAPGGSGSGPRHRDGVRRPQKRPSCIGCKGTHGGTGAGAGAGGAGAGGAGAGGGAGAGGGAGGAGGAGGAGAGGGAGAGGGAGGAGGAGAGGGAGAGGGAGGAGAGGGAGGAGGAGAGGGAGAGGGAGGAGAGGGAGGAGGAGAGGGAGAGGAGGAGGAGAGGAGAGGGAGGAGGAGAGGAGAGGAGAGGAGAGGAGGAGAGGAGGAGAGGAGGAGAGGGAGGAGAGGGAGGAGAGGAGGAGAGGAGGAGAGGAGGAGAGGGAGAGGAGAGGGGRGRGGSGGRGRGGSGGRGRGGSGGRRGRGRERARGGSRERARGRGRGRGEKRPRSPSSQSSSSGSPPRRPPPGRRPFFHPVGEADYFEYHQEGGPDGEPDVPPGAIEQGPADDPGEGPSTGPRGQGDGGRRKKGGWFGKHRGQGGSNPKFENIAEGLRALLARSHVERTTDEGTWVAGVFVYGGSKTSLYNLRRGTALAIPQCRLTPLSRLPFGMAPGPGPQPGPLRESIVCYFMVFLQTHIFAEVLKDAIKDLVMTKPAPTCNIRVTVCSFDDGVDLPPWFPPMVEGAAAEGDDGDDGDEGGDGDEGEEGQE
# [4] = biological target: T2, Lytic switch protein BZLF1 (Epstein-Barr virus (strain B95-8) (HHV-4) (Human herpesvirus 4), UniProt P03206); assay: EBV ZTA inhibitors, dose response, counter-screen for EBNA-1 inhibitor project, biochemical, fluorescence polarization, Epstein-Barr virus, 1536-well (AID 2377); design: species or system human gammaherpesvirus 4;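 note: fluorescence polarization of Cy5-labelled ZRE DNA probe bound by purified Zta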
# T2 sequence (P03206 whole entry): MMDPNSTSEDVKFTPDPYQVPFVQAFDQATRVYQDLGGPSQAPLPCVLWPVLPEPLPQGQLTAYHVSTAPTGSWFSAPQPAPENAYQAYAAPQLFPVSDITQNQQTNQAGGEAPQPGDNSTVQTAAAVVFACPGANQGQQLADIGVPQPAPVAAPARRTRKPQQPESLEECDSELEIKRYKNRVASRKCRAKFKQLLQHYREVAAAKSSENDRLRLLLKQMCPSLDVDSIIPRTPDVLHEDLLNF
# [5] = biological target: Polyadenylate-binding protein 1 (Homo sapiens, UniProt P11940); assay: PABP poly(A) RNA binding inhibitors, primary screen, biochemical, fluorescence polarization, uHTS (AID 2014)
# Sequence of Polyadenylate-binding protein 1 (P11940 whole entry): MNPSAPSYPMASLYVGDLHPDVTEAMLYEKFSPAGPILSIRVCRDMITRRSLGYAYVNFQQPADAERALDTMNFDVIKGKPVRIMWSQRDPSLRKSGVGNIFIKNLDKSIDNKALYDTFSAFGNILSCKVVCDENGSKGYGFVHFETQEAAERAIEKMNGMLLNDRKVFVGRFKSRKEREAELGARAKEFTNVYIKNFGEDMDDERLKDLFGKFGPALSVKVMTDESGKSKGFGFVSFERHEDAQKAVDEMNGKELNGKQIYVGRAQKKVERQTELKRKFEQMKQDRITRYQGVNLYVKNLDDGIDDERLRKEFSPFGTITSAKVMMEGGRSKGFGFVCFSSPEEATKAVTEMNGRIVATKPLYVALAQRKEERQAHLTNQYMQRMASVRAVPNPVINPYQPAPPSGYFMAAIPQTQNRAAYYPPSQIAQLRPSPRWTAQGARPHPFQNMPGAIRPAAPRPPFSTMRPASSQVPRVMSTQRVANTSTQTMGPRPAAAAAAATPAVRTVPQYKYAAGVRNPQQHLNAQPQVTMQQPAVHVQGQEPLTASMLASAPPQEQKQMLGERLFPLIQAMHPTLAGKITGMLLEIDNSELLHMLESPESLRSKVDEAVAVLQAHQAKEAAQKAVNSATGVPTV
# [6] = biological target: Eukaryotic translation initiation factor 4H (Homo sapiens, UniProt Q15056); assay: human eIF4H binding inhibitors, primary screen, translation initiation inhibitor project, biochemical, uHTS, fluorescence polarization (AID 2012)
# [7] = biological target: Glyceraldehyde-3-phosphate dehydrogenase (Homo sapiens, UniProt P04406)
# Sequence of Glyceraldehyde-3-phosphate dehydrogenase (P04406 whole entry): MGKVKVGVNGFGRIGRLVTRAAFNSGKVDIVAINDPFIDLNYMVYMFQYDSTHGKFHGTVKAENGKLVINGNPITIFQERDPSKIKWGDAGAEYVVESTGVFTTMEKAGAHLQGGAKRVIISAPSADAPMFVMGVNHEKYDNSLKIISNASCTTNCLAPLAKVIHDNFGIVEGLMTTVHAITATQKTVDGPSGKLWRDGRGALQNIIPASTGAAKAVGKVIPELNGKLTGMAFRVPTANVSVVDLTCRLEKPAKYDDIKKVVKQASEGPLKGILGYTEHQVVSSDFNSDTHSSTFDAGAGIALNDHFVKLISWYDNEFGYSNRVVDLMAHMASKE
# [8] = biological target: T3, Dual specificity protein phosphatase 6 (Rattus norvegicus, UniProt Q64346)
# T3 sequence (Q64346 whole entry): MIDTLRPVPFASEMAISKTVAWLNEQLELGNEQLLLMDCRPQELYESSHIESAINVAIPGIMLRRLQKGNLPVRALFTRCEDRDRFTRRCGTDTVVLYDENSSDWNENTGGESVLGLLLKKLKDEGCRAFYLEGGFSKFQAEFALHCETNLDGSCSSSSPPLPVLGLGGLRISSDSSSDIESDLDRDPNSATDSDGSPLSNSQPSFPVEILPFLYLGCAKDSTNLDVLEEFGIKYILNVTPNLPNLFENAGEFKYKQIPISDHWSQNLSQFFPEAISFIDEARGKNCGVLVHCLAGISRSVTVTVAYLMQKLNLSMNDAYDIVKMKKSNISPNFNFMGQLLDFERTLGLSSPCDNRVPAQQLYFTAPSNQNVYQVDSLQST
# [9] = biological target: T4, Tyrosine-protein phosphatase non-receptor type 7 (Homo sapiens, UniProt P35236); format: functional
# T4 sequence (P35236 whole entry): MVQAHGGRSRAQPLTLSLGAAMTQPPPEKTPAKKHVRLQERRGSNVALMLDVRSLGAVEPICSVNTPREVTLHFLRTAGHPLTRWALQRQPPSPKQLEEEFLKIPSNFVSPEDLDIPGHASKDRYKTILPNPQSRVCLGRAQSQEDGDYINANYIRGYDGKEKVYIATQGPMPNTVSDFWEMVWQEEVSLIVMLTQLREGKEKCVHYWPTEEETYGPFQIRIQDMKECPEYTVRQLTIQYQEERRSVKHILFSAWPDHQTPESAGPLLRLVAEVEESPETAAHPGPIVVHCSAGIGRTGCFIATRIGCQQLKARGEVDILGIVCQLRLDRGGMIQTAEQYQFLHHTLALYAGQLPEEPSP
# [10] = biological target: T3, Dual specificity protein phosphatase 6; format: functional
# Nonstructural protein 1 = Nonstructural protein 1 (Influenza A virus, UniProt Q194T2); format: functional, Influenza A virus (A/California/07/2009(H1N1))
# Sequence of Nonstructural protein 1 (Q194T2 whole entry): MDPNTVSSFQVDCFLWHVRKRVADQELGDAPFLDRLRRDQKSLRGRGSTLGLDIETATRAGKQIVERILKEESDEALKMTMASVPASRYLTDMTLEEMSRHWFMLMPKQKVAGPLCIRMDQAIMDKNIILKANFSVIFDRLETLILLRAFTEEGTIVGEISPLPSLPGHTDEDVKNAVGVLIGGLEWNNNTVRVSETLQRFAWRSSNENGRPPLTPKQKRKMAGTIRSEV
# [11] = biological target: T5, Microphthalmia-associated transcription factor (Homo sapiens, UniProt O75030); assay: TRPM1 promoter luciferase signal decrease, dose response, MITF inhibitor project, cell-based, SK-MEL-5, cherry-picked, set 3 (AID 493073); format: functional
# T5 sequence (O75030 whole entry): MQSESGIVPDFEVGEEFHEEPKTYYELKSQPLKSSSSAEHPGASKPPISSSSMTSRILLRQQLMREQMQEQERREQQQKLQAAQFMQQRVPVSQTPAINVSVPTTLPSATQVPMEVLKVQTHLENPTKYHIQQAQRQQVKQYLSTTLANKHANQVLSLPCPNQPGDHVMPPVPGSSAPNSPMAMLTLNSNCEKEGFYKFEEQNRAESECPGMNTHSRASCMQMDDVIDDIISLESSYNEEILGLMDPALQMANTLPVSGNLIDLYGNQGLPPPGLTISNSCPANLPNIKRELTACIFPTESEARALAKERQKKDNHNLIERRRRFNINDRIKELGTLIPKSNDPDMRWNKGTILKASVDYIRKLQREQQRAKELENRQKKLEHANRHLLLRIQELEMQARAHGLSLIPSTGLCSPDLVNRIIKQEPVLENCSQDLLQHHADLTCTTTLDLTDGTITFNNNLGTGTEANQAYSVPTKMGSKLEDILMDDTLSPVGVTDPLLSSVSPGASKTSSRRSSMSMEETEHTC
# HT-1080 = assay: cytotoxicity in HT1080 fibrosarcoma cells, cell-based, fluorescence readout (AID 620); format: functional; details: Homo sapiens
# [12] = biological target: Luciferin 4-monooxygenase (Photinus pyralis, UniProt P08659); assay: Counter Screen for Luciferase-based Assay Positives. [Related pubchem assays: 620, 618, 411 ]
# Sequence of Luciferin 4-monooxygenase (P08659 whole entry): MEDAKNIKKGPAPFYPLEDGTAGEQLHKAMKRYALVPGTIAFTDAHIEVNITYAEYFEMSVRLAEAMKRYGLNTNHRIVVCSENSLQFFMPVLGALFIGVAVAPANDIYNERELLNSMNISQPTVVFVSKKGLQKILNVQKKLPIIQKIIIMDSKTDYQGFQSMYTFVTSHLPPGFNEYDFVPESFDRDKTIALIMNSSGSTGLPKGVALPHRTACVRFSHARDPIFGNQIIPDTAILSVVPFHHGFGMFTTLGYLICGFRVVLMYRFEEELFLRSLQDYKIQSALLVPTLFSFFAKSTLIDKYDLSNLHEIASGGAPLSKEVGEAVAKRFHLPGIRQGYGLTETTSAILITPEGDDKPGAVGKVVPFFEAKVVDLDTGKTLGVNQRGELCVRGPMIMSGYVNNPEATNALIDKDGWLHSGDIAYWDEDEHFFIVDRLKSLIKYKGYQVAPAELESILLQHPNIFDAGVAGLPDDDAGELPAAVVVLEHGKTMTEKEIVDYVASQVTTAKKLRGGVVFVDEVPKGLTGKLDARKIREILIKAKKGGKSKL
smiles,measurement,setting,value
CCCCn1c(=N)n(CC(O)COc2cccc(C)c2)c2ccccc21 (configuration not stated),EC50,[1],5.56 µM (active)
same,CC50,Vero,40.2 µM (active)
same,EC50,[2],5.24 µM (active)
O=C(CNC(=O)c1ccc(-c2ccccc2)cc1)OCc1c(F)cccc1Cl,IC50,[3],11.7 µM (not active)
same,IC50,[4],> 111 µM (not active)
O=C(CCS(=O)(=O)c1ccc(Br)cc1)N1CCN(c2ccc(F)cc2)CC1,IC50,[5],> 100 µM (inactive)
same,IC50,[6],24.2 µM (active)
O=c1[nH]c(CN2CCN(S(=O)(=O)c3ccc4ccccc4c3)CC2)nc2ccccc12,IC50,[3],5.56 µM (active)
same,IC50,[4],> 111 µM (not active)
Cc1cc(O)c2c(c1)C1C=CCC1C(C(=O)O)N2 (configuration not stated),IC50,[7],> 100 µM (not active)
same,IC50,[8],> 100 µM (inactive)
same,IC50,[9],2.41 µM (active)
same,IC50,[10],> 100 µM (inactive)
CN(C)c1ccc(NC(=S)c2ccccn2)cc1,EC50,[1],92.2 µM (active)
same,IC50,Nonstructural protein 1,28.3 µM (active)
same,AC50,[11],2.84 µM (active)
same,EC50,[2],136 µM (active)
same,EC50,HT-1080,> 50 µM (not active)
same,EC50,[12],0.52 µM (active)
CN(CC(=O)NC(=O)NCc1ccco1)CC(=O)Nc1ccccc1Cl,IC50,[5],60.8 µM (active)
same,IC50,[6],20.5 µM (active)
COc1ccc(-n2ncc3c(NC(C)C)ncnc32)cc1,EC50,HT-1080,> 50 µM (not active)
same,EC50,[12],< 0.2 µM (active)
O=C(O)C1Nc2c(cccc2S(=O)(=O)c2ccccc2)C2C=CCC12 (configuration not stated),IC50,[7],56.4 µM (active)
same,IC50,[8],52.2 µM (active)
same,IC50,[9],11 µM (active)
same,IC50,[10],58.7 µM (active)
